Results from patent publication US9983218B2, “Indole and indoline derivatives and methods of use thereof” (AbbVie Inc., priority 2008, dated 2018).

System: SK-N-SH human neuroblastoma cells
Test: Serum deprivation/JC-1 mitochondrial membrane potential (MMP) assay
Format: cell-based
Conditions: Homo sapiens; for Emax: SK-N-SH, percent maximal intensity in JC-1 ratio normalized to 10 μM dimebolin, read-out: JC-1 max %; for EC50: SK-N-SH cells, serum deprivation ~18 hours, JC-1 ratio normalized to peak value for 10 μM dimebolin, single curve fit to mean data of n=2-3, read-out: EC50
Description: SK-N-SH human neuroblastoma cells obtained from American Type Culture Collection (Rockville, Md.) were maintained in the log phase of growth in Minimal Essential Media (MEM), 10% heat inactivated fetal calf serum and 100 units/mL antibiotic-antimycotic (AA). Cells were cultured and maintained in a humidified incubator at 37° C. under 5% CO2 and 95% air. Cells were trypsinized (0.25%) and subcultured every 3 days and used from 15-18 passages. All cell culture supplies were obtained from Invitrogen (Carlsbad, Calif.).
SK-N-SH cells were plated 2-3 days in advance at a concentration of 50,000 cells/well onto collagen coated black-walled 96 well plates (Becton-Dickinson, Bedford, Mass.) in a total volume of 200 μL. On day of experimental treatment, the media containing serum was aspirated from each well and rinsed once with MEM/1% AA without serum. The cells then were incubated overnight in 100 μL of MEM/1% AA (no serum) with and without dimebolin or novel chemical entities overnight for ˜18 hours. The following day, JC-1 dye (5,5′,6,6′-tetrachloro-1,1′,3,3′-tetraethylbenzimidazolcarbocyanide) was diluted 1:10 into MEM media according to the JC-1 Mitochondrial Membrane Potential Assay Kit: (Cayman Chemical Company, Ann Arbor, Mich.) and then 10 μL of the JC-1 dye solution was added to each well. The plates were centrifuged for 5 minutes at 400×g at room temperature followed by 35 minute incubation at 37° C. The plates were washed twice with 200[…] μL of provided Assay Buffer followed an addition of 100 μL of Assay Buffer to each well. The plates were read with an excitation and emission of 560 nm and 595 nM for red fluorescence and with an excitation and emission of 485 nm and 535 nM for green fluorescence to determine the final JC-1 value taking the red to green fluorescence ratio. This assay is based on change in mitochondrial membrane potential (MMP) using this lipophilic cationic dye, JC-1, by monitoring the changes in the ratio of red to green fluorescence as the MMP depolarizes. This change in MMP reflects the health of the cell with healthy, viable cells have a high JC-1 ratio and high MMP whereas apoptotic, unhealthy cells have a low JC-1 ratio or low MMP.
For the ability of compounds to reverse the stress due to serum deprivation and increase the JC-1 ratio, the percent maximal intensity in JC-1 ratio was normalized to that induced by the peak value for 10 μM dimebolin and plotted against the compound concentration to calculate EC50 values and to control for plate-to-plate variability. Concentration-response data were analyzed using GraphPad Prism (San Diego, Calif.); the EC50 values were derived from a single curve fit to the mean data of n=2-3, in duplicates.
All compounds were dissolved in dimethyl sulfoxide at 10 mM stock solutions and tested at a concentration that the dimethyl sulfoxide levels never exceeded 1%.

c1cnc2ccc(-n3c4c(c5ccccc53)CN3CCC4CC3)cc2c1 [Example 233, 6-quinolin-6-yl-3,4,5,6-tetrahydro-1H-2,5-ethanoazepino[4,3-b]indole] gave an Emax of 250% and an EC50 of 0.8 µM.
Work on Cc1ncc(-n2c3c(c4cc(F)ccc42)CN2CCC3CC2)cn1 [Example 263, 9-fluoro-6-(2-methylpyrimidin-5-yl)-3,4,5,6-tetrahydro-1H-2,5-ethanoazepino[4,3-b]indole] yielded an Emax of 108% and an EC50 of 11 µM.
For c1ccc2nc(-n3c4c(c5ccccc53)CN3CCC4CC3)ccc2c1 [Example 235, 6-quinolin-2-yl-3,4,5,6-tetrahydro-1H-2,5-ethanoazepino[4,3-b]indole], the Emax was 252% and the EC50 was 3.96 µM.
For Cc1ccc(S(=O)(=O)n2c3c(c4cc(Br)ccc42)C2CCC(C3)N2C)cc1 (stereo not shown) [Example 90, 2-bromo-11-methyl-5-[(4-methylphenyl)sulfonyl]-5,6,7,8,9,10-hexahydro-7,10-epiminocyclohepta[b]indole], the Emax was 176% and the EC50 was 3.43 µM.
Cc1ccc2c(c1)c1c(n2CCc2ccccc2F)C2CCN(CC2)C1 [Example 150, 6-[2-(2-fluorophenyl)ethyl]-9-methyl-3,4,5,6-tetrahydro-1H-2,5-ethanoazepino[4,3-b]indole] was tested, and the Emax was 134% and the EC50 was 3.6 µM.
In the case of Cc1ccc2c(c1)c1c(n2CCc2cccc(C(F)(F)F)c2)C2CCN(CC2)C1 [Example 152, 9-methyl-6-{2-[3-(trifluoromethyl)phenyl]ethyl}-3,4,5,6-tetrahydro-1H-2,5-ethanoazepino[4,3-b]indole], the Emax is reported as 156% and the EC50 is reported as 3.86 µM.
Work on c1ccc2c(c1)c1c(n2Cc2ccncc2)C2CCN(CC2)C1 [Example 189, 6-[(pyridin-4-yl)methyl]-3,4,5,6-tetrahydro-1H-2,5-ethanoazepino[4,3-b]indole] yielded an Emax of 107% and an EC50 of 11.3 µM.
COCCN(C)c1ccc(Cn2c3c(c4cc(F)ccc42)CN2CCC3CC2)cn1 [Example 245, 5-[(9-fluoro-1,3,4,5-tetrahydro-6H-2,5-ethanoazepino[4,3-b]indol-6-yl)methyl]-N-(2-methoxyethyl)-N-methylpyridin-2-amine] was tested, and the Emax was 189% and the EC50 was 10 µM.
Cc1ccc2c(c1)c1c(n2CCc2ccc(C)nc2)CC2CCC1N2C(=O)c1ccc(Cl)cc1 (stereo not shown) [Example 17, 11-(4-chlorobenzoyl)-2-methyl-5-[2-(6-methylpyridin-3-yl)ethyl]-5,6,7,8,9,10-hexahydro-7,10-epiminocyclohepta[b]indole] was tested, and the Emax was 345% and the EC50 was 3.53 µM.
Cc1ccc(CCn2c3c(c4cc(F)ccc42)C2CCC(C3)N2C)cc1 (stereo not shown) [Example 84, 2-fluoro-11-methyl-5-[2-(4-methylphenyl)ethyl]-5,6,7,8,9,10-hexahydro-7,10-epiminocyclohepta[b]indole] gave an Emax of 173% and an EC50 of 6.76 µM.
With Cc1ccc2c(c1)c1c(n2CCc2ccc(C)nc2)C2CCCN(C1)C2 (stereo not shown) [Example 202, 10-methyl-7-[2-(6-methylpyridin-3-yl)ethyl]-1,3,4,5,6,7-hexahydro-2,6-methanoazocino[4,3-b]indole] the Emax was 239% and the EC50 was 3.07 µM.
For Fc1ccc2c(c1)c1c(n2Cc2ccccn2)C2CCN(CC2)C1 [Example 184, 9-fluoro-6-(pyridin-2-ylmethyl)-3,4,5,6-tetrahydro-1H-2,5-ethanoazepino[4,3-b]indole], the Emax was 175% and the EC50 was 10.7 µM.
Fc1ccc2c(c1)c1c(n2Cc2cn3nc(Cl)ccc3n2)C2CCN(CC2)C1 [Example 253, 6-[(6-chloroimidazo[1,2-b]pyridazin-2-yl)methyl]-9-fluoro-3,4,5,6-tetrahydro-1H-2,5-ethanoazepino[4,3-b]indole] gave an Emax of 185% and an EC50 of 4.4 µM.
For Cc1ccc2cc(-n3c4c(c5ccccc53)CN3CCC4CC3)ccc2n1 [Example 232, 6-(2-methylquinolin-6-yl)-3,4,5,6-tetrahydro-1H-2,5-ethanoazepino[4,3-b]indole], the Emax was 220% and the EC50 was 0.81 µM.
CN1CCc2cc(-n3c4c(c5ccccc53)CN3CCC4CC3)ccc2C1 [Example 268, 6-(2-methyl-1,2,3,4-tetrahydroisoquinolin-6-yl)-3,4,5,6-tetrahydro-1H-2,5-ethanoazepino[4,3-b]indole] gave an Emax of 237% and an EC50 of 4.43 µM.
For Cc1ccc2c(c1)[C@@H]1[C@@H](C3CCN1CC3)N2CCc1ccc(C)nc1 (relative stereo) [Example 213, (4aR*,9bR*)-8-methyl-5-[2-(6-methylpyridin-3-yl)ethyl]-2,3,4,4a,5,9b-hexahydro-1,4-ethanopyrido[3,2-b]indole], the Emax was 177% and the EC50 was 5.43 µM.
Cc1ccc(CCn2c3c(c4cc(OC(F)(F)F)ccc42)C2CCCC(C3)N2)cn1 (stereo not shown) [Example 140, 5-[2-(6-methylpyridin-3-yl)ethyl]-2-(trifluoromethoxy)-6,7,8,9,10,11-hexahydro-5H-7,11-epiminocycloocta[b]indole] showed an Emax of 194% and an EC50 of 3.32 µM.
For O=c1ccnc2ccc(-n3c4c(c5ccccc53)[C@H]3CC[C@@H](C4)N3)cn12 (single isomer, unassigned) [Example 283], the Emax was 170% and the EC50 was 6.02 µM.
For c1cc(-n2cccn2)nc(-n2c3c(c4ccccc42)CN2CCC3CC2)c1 [Example 236, 6-[6-(1H-pyrazol-1-yl)pyridin-2-yl]-3,4,5,6-tetrahydro-1H-2,5-ethanoazepino[4,3-b]indole], the Emax was 268% and the EC50 was 1.74 µM.
Cc1ccc(CCn2c3c(c4cc(-c5ccc(Cl)cc5)ccc42)C2CCC(C3)N2C)cn1 (stereo not shown) [Example 106, 2-(4-chlorophenyl)-11-methyl-5-[2-(6-methylpyridin-3-yl)ethyl]-5,6,7,8,9,10-hexahydro-7,10-epiminocyclohepta[b]indole] showed an Emax of 238% and an EC50 of 5.73 µM.
Work on Clc1ccc2nc(Cn3c4c(c5ccccc53)CN3CCC4CC3)cn2n1 [Example 257, 6-[(6-chloroimidazo[1,2-b]pyridazin-2-yl)methyl]-3,4,5,6-tetrahydro-1H-2,5-ethanoazepino[4,3-b]indole] yielded an Emax of 155% and an EC50 of 3.6 µM.
With c1cncc(Cn2c3c(c4ccccc42)CN2CCC3CC2)c1 [Example 188, 6-(pyridin-3-ylmethyl)-3,4,5,6-tetrahydro-1H-2,5-ethanoazepino[4,3-b]indole] the Emax was 96% and the EC50 was 6.52 µM.
Work on O=c1ccccn1-c1cccc(-n2c3c(c4ccccc42)CN2CCC3CC2)n1 [Example 273, 6′-(1,3,4,5-tetrahydro-6H-2,5-ethanoazepino[4,3-b]indol-6-yl)-2H-1,2′-bipyridin-2-one] yielded an Emax of 190% and an EC50 of 7.48 µM.
Cc1ccc2c(c1)c1c(n2-c2ccc3ncccc3c2)C2CCN(CC2)C1 [Example 217, 9-methyl-6-quinolin-6-yl-3,4,5,6-tetrahydro-1H-2,5-ethanoazepino[4,3-b]indole] gave an Emax of 182% and an EC50 of 2.94 µM.
Fc1ccc2c(c1)c1c(n2-c2ccc3ccccc3n2)C2CCN(CC2)C1 [Example 224, 9-fluoro-6-quinolin-2-yl-3,4,5,6-tetrahydro-1H-2,5-ethanoazepino[4,3-b]indole] showed an Emax of 215% and an EC50 of 3.17 µM.
Cc1ccc(CCn2c3c(c4cc(-c5cn[nH]c5)ccc42)C2CCC(C3)N2C)cn1 (stereo not shown) [Example 112, 11-methyl-5-[2-(6-methylpyridin-3-yl)ethyl]-2-(1H-pyrazol-4-yl)-5,6,7,8,9,10-hexahydro-7,10-epiminocyclohepta[b]indole] showed an Emax of 101% and an EC50 of 3.43 µM.
Fc1ccc2c(c1)c1c(n2Cc2ccc(Cl)nc2)CC2CNC1C2 (stereo not shown) [Example 285, 6-[(6-chloropyridin-3-yl)methyl]-9-fluoro-1,2,3,4,5,6-hexahydro-1,4-methanoazepino[4,3-b]indole] showed an Emax of 149% and an EC50 of 9.41 µM.
With CC(C)c1ccc2c(c1)c1c(n2CCc2ccc(Cl)cc2)C[C@H]2CC[C@@H]1N2C (single isomer, unassigned) [Example 100] the Emax was 140% and the EC50 was 3.63 µM.
Compound Cc1ccc2c(c1)c1c(n2CCc2ccccc2F)CC2CCC1N2C (stereo not shown) [Example 43, 5-[2-(2-fluorophenyl)ethyl]-2,11-dimethyl-5,6,7,8,9,10-hexahydro-7,10-epiminocyclohepta[b]indole] has an Emax of 202% and an EC50 of 7.64 µM.
